Structures can show the parent of a compound that is named as a salt.

T1 sequence (P27487 whole entry): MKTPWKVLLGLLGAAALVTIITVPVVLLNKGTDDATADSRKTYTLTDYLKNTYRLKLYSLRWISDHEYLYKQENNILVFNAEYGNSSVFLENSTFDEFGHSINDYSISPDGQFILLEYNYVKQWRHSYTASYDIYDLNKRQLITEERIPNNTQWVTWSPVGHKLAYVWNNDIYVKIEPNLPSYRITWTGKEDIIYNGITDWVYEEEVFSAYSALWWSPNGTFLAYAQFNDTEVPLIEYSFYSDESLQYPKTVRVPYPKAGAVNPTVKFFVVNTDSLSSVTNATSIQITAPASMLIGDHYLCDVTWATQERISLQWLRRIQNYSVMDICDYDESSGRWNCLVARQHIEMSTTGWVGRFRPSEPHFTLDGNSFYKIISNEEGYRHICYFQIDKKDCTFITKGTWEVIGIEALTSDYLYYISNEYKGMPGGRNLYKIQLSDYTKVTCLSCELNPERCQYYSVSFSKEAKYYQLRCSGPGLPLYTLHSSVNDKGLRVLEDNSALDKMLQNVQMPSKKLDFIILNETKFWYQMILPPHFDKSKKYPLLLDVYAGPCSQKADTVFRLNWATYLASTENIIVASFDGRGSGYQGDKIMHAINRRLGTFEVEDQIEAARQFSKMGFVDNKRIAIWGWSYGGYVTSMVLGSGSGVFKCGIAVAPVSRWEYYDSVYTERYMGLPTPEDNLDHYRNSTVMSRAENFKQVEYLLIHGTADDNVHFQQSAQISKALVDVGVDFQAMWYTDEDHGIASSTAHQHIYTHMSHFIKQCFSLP

The first series concerns the target T1, DPP-IV (Homo sapiens, UniProt P27487).
T1 construct: an extract of human colon carcinoma cell line Caco-2 is used as the DPP IV source; endogenous in cells; host or cells: Caco-2 (human colon carcinoma), differentiated to induce DPP-IV expression; Nonidet-P40 solubilised extract
In words: DPP-IV inhibition assay with Caco-2 cell extract, AFC substrate, fluorescence. The series is classed as biochemical. As to conditions: extract of human colon carcinoma cell line Caco-2 as DPP IV source; 100 μM AFC substrate; 60 minutes, ambient temperature. On the procedure:
The cell extract was obtained from cells solubilised in a buffer (10 mM Tris HCl, 0.15 M NaCl, 0.04 t.i.u. aprotinin, 0.5% Nonidet-P40, pH 8.0) by centrifuging at 35,000 g for 30 minutes at 4° C. (to remove cell debris).
The DPP-IV assay was carried out as follows:
50 μl substrate solution (AFC; AFC is amido-4-trifluoromethylcoumarin), final concentration 100 μM, were placed in black microtitre plates. 20 μl of assay buffer (final concentrations 50 mM Tris HCl pH 7.8, 50 mM NaCl, 1% DMSO) was pipetted in. The reaction was started by adding 30 μl of solubilised Caco-2 protein (final concentration 0.14 μg of protein per well). The test substances to be investigated were typically added prediluted in 20 μl, and the volume of assay buffer was then reduced accordingly. The reaction was carried out at ambient temperature, incubating for 60 minutes. […] Blank readings (corresponding to 0% activity) were obtained in mixtures without any Caco-2 protein (volume replaced by assay buffer), control values (corresponding to 100% activity) were obtained in mixtures with no substance added.
For the compound `CC#CCn1c(N2CCC[C@@H](N)C2)nc2cnn(Cc3cn(C)c(=O)c4ccccc34)c(=O)c21` [Example 217, 2-((R)-3-amino-piperidin-1-yl)-3-(but-2-ynyl)-5-(2-methyl-2H-isoquinolin-1-on-4-ylmethyl)-3,5-dihydro-imidazo[4,5-d]pyridazin-4-one], the IC50 was found to be 10 nM. This lies in the double-digit nanomolar range.
The compound `CC#CCn1c(N2CCC[C@@H](N)C2)nc2cnn(Cc3ccc4nonc4c3)c(=O)c21` [Example 202, 2-((R)-3-amino-piperidin-1-yl)-3-(but-2-ynyl)-5-(benzo[1,2,5]oxadiazol-5-ylmethyl)-3,5-dihydro-imidazo[4,5-d]pyridazin-4-one] returned a concentration for half-maximal inhibition (IC50) of 9.8 nM.
For `Cc1cc2ccccc2c(Cn2ncc3nc(N4CCC[C@@H](N)C4)n(Cc4ccccc4Cl)c3c2=O)n1` [Example 205, 2-((R)-3-amino-piperidin-1-yl)-3-(2-chlorobenzyl)-5-(3-methyl-isoquinolin-1-ylmethyl)-3,5-dihydro-imidazo[4,5-d]pyridazin-4-one], 5.4 nM corresponded to half-maximal inhibition (IC50).
The compound `CC#CCn1c(N2CCCC(N)C2)nc2cnn(Cc3ccc4nccnc4c3)c(=O)c21` (stereo not shown) [Example 182, 2-(3-amino-piperidin-1-yl)-3-(but-2-ynyl)-5-(quinoxalin-6-ylmethyl)-3,5-dihydro-imidazo[4,5-d]pyridazin-4-one] registered an IC50 of 1.2 nM. Against the preceding compound, the IC50 is about 4.5-fold lower.
`CC#CCn1c(N2CCC[C@@H](N)C2)nc2cnn(Cc3nc4cc(C(F)(F)F)ccc4s3)c(=O)c21` [Example 195, 2-((R)-3-amino-piperidin-1-yl)-3-(but-2-ynyl)-5-(5-trifluoromethylbenzothiazol-2-ylmethyl)-3,5-dihydro-imidazo[4,5-d]pyridazin-4-one hydrochloride] registered a half-maximal inhibitory concentration (IC50) of 17 nM.
Still for that read-out and setting: the value for `CC#CCn1c(N2CCC[C@@H](N)C2)nc2cnn(Cc3ccc(F)c4ccccc34)c(=O)c21` [Example 191, 2-((R)-3-amino-piperidin-1-yl)-3-(but-2-ynyl)-5-(4-fluoronaphthalen-1-ylmethyl)-3,5-dihydro-imidazo[4,5-d]pyridazin-4-one hydrochloride] was 14 nM.

A further series concerns rats. In words: Tolerability in rats after oral administration. It counts as in vivo, rat. As to conditions: 10 mg/kg.
As for `CC#CCn1c(N2CCCC(N)C2)nc2cnn(Cc3cccc4ccccc34)c(=O)c21` (stereo not shown) [Example 2, 2-(3-amino-piperidin-1-yl)-3-(but-2-ynyl)-5-(naphthalen-1-ylmethyl)-3,5-dihydro-imidazo[4,5-d]pyridazin-4-one], the “changes in the animals' behaviour” value is given as “no changes in the animals' behaviour could be detected”.

The record behind these values is patent publication US7109192B2, “Substituted imidazo-pyridinones and imidazo-pyridazinones, the preparation thereof and their use as pharmaceutical compositions” (Boehringer Ingelheim Pharma GmbH & Co KG, priority 2002, dated 2006).
